Results on 16 compounds are retold here after article PMC10812672, “Short Antimicrobial Peptide Derived from the Venom Gland Transcriptome of Pamphobeteus verdolaga Increases Gentamicin Susceptibility of Multidrug-Resistant Klebsiella pneumoniae” (Antibiotics, 2023).

Ends that are not written are not given here. Bounds are passed on as bounds.

For assay [1], the system named is S. aureus ATCC® 6538. The format is cell-based, Staphylococcus aureus. The following applies: CLSI broth microdilution, Mueller-Hinton broth, peptide 30 µM, ~6 × 10^6 CFU/mL, 24 h 37 °C, OD600; triplicate, three independent assays; NA = no activity. The protocol: (§1) Activity screening was conducted using the broth microdilution method at a fixed peptide concentration of 30 µM against E. coli ATCC® 8739 and 25922, as well as S. aureus ATCC® 6538 and 29213. The bacterial density used for screening was approximately 6 × 10^6 CFU/mL [30]. Peptide activity measurements were conducted in terms of the growth inhibition percentage. No dose-response curves were generated during the screening phase as a resource optimization strategy in the initial activity evaluation. […] For S. aureus ATCC® 6538 and S. aureus ATCC® 29213, growth inhibition ranged from 0% to 140% and 0% to 98%, respectively (Table 1).
(§2) The evaluation of the antimicrobial activity of the peptides was conducted using the CLSI’s broth microdilution method for bacterial susceptibility testing. For the screening phase, peptides were evaluated at a single 30 μM concentration, in triplicate and in three independent assays, against the E. coli ATCC® 8739, E. coli ATCC® 25922, S. aureus ATCC® 6538, or S. aureus ATCC® 29213 reference USP and CLSI strains. For the determination of MIC, MBC, or IC50, peptides or antibiotics were evaluated in concentrations between 1.56–200 µM. These evaluations were conducted in triplicate and in three independent assays, against the E. coli ATCC® 25922, S. aureus ATCC® 29213, E. faecalis ATCC® 49532, P. aeruginosa ATCC® 9027, and K. pneumoniae ATCC® BAA-1705, or the clinically isolated MDR strain. In detail, 1 mL of a glycerol stock solution of the ATCC® or clinically isolated bacterial strain was added to 9 mL of Mueller-Hinton Broth and incubated for 18 h, 180 rpm and 37 °C (Incubator 1000, Heidolph Instruments, Schwabach, Germany). After the incubation, 1 mL of the previous solution was transferred to a new recipient containing 9 mL of fresh Mueller-Hinton broth and incubated for 4 h, 180 rpm and 37 °C (Incubator 1000, Heidolph Instruments, Schwabach, Germany). During the second incubation, the peptides or the antibiotics were dissolved in PBS pH 7.20 in concentrations between 19.53–2500 µM (MC5 Micro Balance, Sartorius AG, Göttingen, Germany). An amount of 10 µL of either peptide or antibiotic was dispensed in triplicate in 96-well flat bottom culture plates, along with 10 µL of PBS (Negative activity control), BTM-P1 (Positive activity control), or 10 µL of Mueller-Hinton broth (Blank); then, 110 µL of Mueller-Hinton broth was poured in all wells. Following this, the bacteria were suspended in Mueller-Hinton broth up to a concentration of approximately 1.50 × 10^8 CFU/mL, as measured by optical density at 600 nm between 0.06 to 0.11 (0.5 McFarland standard), in a Multiskan SkyHigh spectrophotometer (ThermoFisher Scientific, Waltham, MA, USA). Amounts of 5 µL of the 1.50 × 10^8 CFU/mL suspension were added to each well (except for the blank) for a final well concentration of approximately 6 × 10^6 CFU/mL. The plate was incubated for 24 h at 37 °C (BE 500, Memmert GmbH, Büchenbach, Germany) and optical density was measured at 600 nm in a Multiskan SkyHigh spectrophotometer (ThermoFisher Scientific, Waltham, MI, USA). Following the measurement of optical density, plates were visually inspected to determine the MIC. Subsequently, 100 µL of the concentration associated to the MIC and 100 µL of the next higher concentration were added to Petri dishes containing Mueller-Hinton Agar. The dishes were then incubated for 24 h at 37 °C (BE 500, Memmert GmbH, Büchenbach, Germany). After incubation, the Petri dishes were visually inspected, and the MBC was determined in the absence of growth. IC50 values were interpolated from regressions with correlation values above 0.70. Growth inhibition percentages were calculated as follows: Growth inhibition %=1−AbsPEPTIDE or ANTIBIOTIC−Median AbsBLANK/Median AbsPBS−Median AbsBLANK×100
In general terms: In broth dilution the organism is exposed to a series of concentrations in liquid medium.

Assay [2] concerns S. aureus ATCC® 29213. The format is cell-based, Staphylococcus aureus. The following applies: CLSI broth microdilution, Mueller-Hinton broth, peptide 30 µM, ~6 × 10^6 CFU/mL, 24 h 37 °C, OD600; triplicate, three independent assays; NA = no activity. The protocol:
as §1, §2

For assay [3], the system named is E. coli ATCC® 25922. The format is cell-based, Escherichia coli. To be noted: CLSI broth microdilution, Mueller-Hinton broth, peptide 30 µM, ~6 × 10^6 CFU/mL, 24 h 37 °C, OD600; triplicate, three independent assays; NA = no activity. The protocol:
as §1, §2

Assay [4] deals with E. coli ATCC® 8739. The format is cell-based, Escherichia coli. The following applies: CLSI broth microdilution, Mueller-Hinton broth, peptide 30 µM, ~6 × 10^6 CFU/mL, 24 h 37 °C, OD600; triplicate, three independent assays; NA = no activity. The protocol: as §1, §2
Assay [5] deals with E. coli ATCC® 25922. The format is cell-based, Escherichia coli. To be noted: 24 h 37 °C; for MIC: 1.56–200 µM, visual inspection, triplicate, three independent assays. The method, then:
The nine AMPs identified in the initial screening were evaluated at concentrations between 1.56–200 µM, against E. coli ATCC® 25922, S. aureus ATCC® 29213, E. faecalis ATCC® 49532, P. aeruginosa ATCC® 9027, and K. pneumoniae ATCC® BAA-1705 (Supplementary Figures S2–S6). […] Only PvAMP66 and PvAMP172 reached the MBC for S. aureus at 50 µM and 100 µM, respectively (Table 2).
as §2

Assay [6] relates to multidrug-resistant (MDR) strain of K. pneumoniae, clinical isolate. In words: microbe, parasite or virus in culture. The format is cell-based, Klebsiella pneumoniae. To be noted: for inhibition at 100 µM / IC50 / MIC: Klebsiella pneumoniae; for inhibition at 100 µM: read-out: maximum growth inhibition; for MIC / Classification at 10^6 CFU/mL: MDR K. pneumoniae clinical isolate; for Classification at 10^6 CFU/mL: CLSI classification. The method, then: A multidrug-resistant (MDR) strain of K. pneumoniae was identified and isolated from a tertiary-level hospital in Medellin, Colombia, using the VITEK-2 system (bioMérieux, Marcy-l’Étoile, France). The MDR strain was evaluated against several antibiotics at concentrations of 1.56–100 μM. […] In contrast, the strain was susceptible to doxycycline (Supplementary Figure S7g) and chloramphenicol (Supplementary Figure S7h), with MICs of 50 μM and 100 µM, respectively (Table 3). […] All of P. verdolaga’s AMPs were evaluated against the clinical isolate at concentrations of 1.56–200 µM (Supplementary Figure S8). […] A growth inhibition kinetic assay was conducted. […] All of P. verdolaga’s peptides at 100 μM induced morphological changes in the MDR K. pneumoniae, indicating membrane interactions, even though no significant inhibition was observed (Supplementary Figure S9).
as §2, with “Growth inhibition percentages were calculated as follows: Growth inhibition %=1−AbsPEPTIDE or ANTIBIOTIC−Median AbsBLANK/Median AbsPBS−Median AbsBLANK×100” left out

Setting [7] is: 24 h, peptides 1.56–200 µM, antibiotics 1.56–100 µM, 24 h 37 °C.

In the case of LLTGIKS-NH2 [PvAMP30], in assay [1], the “S. aureus ATCC® 6538 (Inhibition %)” value is 35.52 ± 7.29 %. Further, in assay [2], the inhibition (in general, the relative decrease from the control value, in per cent) turned out to be 7.34 ± 10.3%.

For FSGNKLLPG-NH2 [PvAMP81], the “E. coli ATCC® 25922 (Inhibition %)” value in assay [3] amounted to 31.88 ± 2.18 %. The inhibition in assay [4] is 8.57 ± 4.46%.

For “YRARCVIYC-NH2 (disulfide) [PvAMP69, predicted P. verdolaga AMP]”, the MIC in assay [5] was 200 µM. In assay [5] (plating on Mueller-Hinton agar, absence of growth), the MBC – broadly, the smallest concentration meeting the test's criterion for killing – is reported as 200 µM. The “E. coli ATCC® 25922 (Inhibition %)” value in assay [3] is on record as 19.08 ± 0.12 %. The same compound displayed an inhibition in assay [4] of 1.75 ± 9.78%. Besides, the “S. aureus ATCC® 6538 (Inhibition %)” value in assay [1] is listed as 32.32 ± 7.00 %. For the same compound, the “S. aureus ATCC® 29213 (Inhibition %)” value in assay [2] amounted to 29.81 ± 3.31 %.

Take SLFKFLA-NH2 [PvAMP8]: in assay [1], the “S. aureus ATCC® 6538 (Inhibition %)” value is 47.95 ± 3.62 %. The compound also returned an inhibition in assay [2] of 11.9 ± 8.93%.

With `Cc1onc(-c2c(Cl)cccc2Cl)c1C(=O)N[C@@H]1C(=O)N2[C@@H]1SC(C)(C)[C@@H]2C(=O)O` [dicloxacillin], in assay [6], the inhibition at 100 µM is at most 20%.

In the case of “CRRVCYKNR CVTYCRG (disulfide) [PvAMP169, predicted P. verdolaga AMP]”, the “E. coli ATCC® 25922 (Inhibition %)” value in assay [3] is 55.69 ± 4.65 %. In assay [4], this compound yielded an inhibition of 13.6 ± 5.92%.

For the compound LLSKIFG-NH2 [PvAMP16], the “S. aureus ATCC® 6538 (Inhibition %)” value in assay [1] turned out to be 42.06 ± 4.29 %. In addition, the inhibition in assay [2] worked out at 13.8 ± 6.48%.

Take SLWGMWR-NH2 [PvAMP7]: the MIC in assay [5] is on record as 200 µM. In addition, the “E. coli ATCC® 25922 (Inhibition %)” value in assay [3] was determined as 18.21 ± 2.54 %. Besides, the “E. coli ATCC® 8739 (Inhibition %)” value in assay [4] came to 26.74 ± 0.68 %. Besides, the “S. aureus ATCC® 6538 (Inhibition %)” value in assay [1] is given as 37.89 ± 1.50 %. Also, the “S. aureus ATCC® 29213 (Inhibition %)” value in assay [2] was determined as 23.66 ± 3.34 %.

In turn, ILKPFMLRR-NH2 [PvAMP84] registered an inhibition in assay [3] of 11.3 ± 3.72%. Besides, the “E. coli ATCC® 8739 (Inhibition %)” value in assay [4] turned out to be 24.29 ± 6.74 %.

On to `CC1(C)S[C@@H]2[C@H](NC(=O)[C@H](N)c3ccccc3)C(=O)N2[C@H]1C(=O)O` [ampicillin], for which the inhibition at 100 µM in assay [6] was at most 20%.

With `[H]/N=C(/N)N[C@H]1[C@H](O)[C@@H](O)[C@H](O[C@@H]2O[C@@H](C)[C@](O)(C=O)[C@H]2O[C@@H]2O[C@@H](CO)[C@H](O)[C@@H](O)[C@@H]2NC)[C@@H](N/C(N)=N\[H])[C@@H]1O` [streptomycin], the inhibition at 100 µM in assay [6] is at most 20%.

Consider penicillin, for which the maximum growth inhibition in assay [6] (MDR K. pneumoniae, at 100 μM, complete resistance) is on record as at most 20%.

In the case of `CN(C)[C@@H]1C(O)=C(C(N)=O)C(=O)[C@@]2(O)C(O)=C3C(=O)c4c(O)cccc4[C@@](C)(O)[C@H]3[C@H](O)[C@@H]12` [oxytetracycline], the inhibition at 100 µM in assay [6] is at most 20%.

As to `C[C@H]1c2cccc(O)c2C(=O)C2=C(O)[C@]3(O)C(=O)C(C(N)=O)=C(O)[C@@H](N(C)C)[C@@H]3[C@@H](O)[C@@H]21` [Doxycycline, doxycycline], in assay [6], the IC50 (in general, the concentration that gives 50% inhibition) was found to be 38.1 µM; the MIC amounted to 3.21 µg/mL; the “Classification at 10^6 CFU/mL” value was “Susceptible”. The compound also registered an MIC in assay [6] (setting [7]) of 50 µM.

For the compound `O=C(N[C@H](CO)[C@H](O)c1ccc([N+](=O)[O-])cc1)C(Cl)Cl` [Chloramphenicol, chloramphenicol], in assay [6], the IC50 was 56.2 µM, the MIC was 4.04 µg/mL and the “Classification at 10^6 CFU/mL” value is “Susceptible”. Also, in assay [6] (setting [7]), the MIC was 100 µM.

As to FLGKNLG-NH2 [PvAMP15], the “S. aureus ATCC® 6538 (Inhibition %)” value in assay [1] amounted to 43.62 ± 10.56 %. The inhibition in assay [2] stood at 27.5 ± 29.7%.
